25 compounds from patent publication US10124004B2, “Pyrido[3,4-d]pyrimidine derivative and pharmaceutically acceptable salt thereof” (Teijin Pharma Limited, priority 2015, dated 2018) can be followed below.

Like-named read-outs stand apart in the source and are kept apart here.

One experiment addresses T1, CDK4/cyclin D3 (Homo sapiens, UniProt P11802).
T1 construct: purchased Carna Biosciences, Inc. QS S Assist CDK4/Cyclin D3_FP Kit
Put plainly: Human CDK4/cyclin D3 inhibitory activity (QS S Assist CDK4/Cyclin D3_FP Kit, IMAP fluorescence polarization). The class given is biochemical. The procedure, abridged: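 IMAP fluorescence-polarization kinase assay with kit ATP/substrate/metal mix and 12.5 to 25 ng/well enzyme in 20 mM HEPES pH 7.4, 0.01% Tween20, 2 mM DTT. Reaction ran 45 min at room temperature, then binding reagent was added for 30 min in the dark. IC50 was taken from dose-response fits of percent inhibition.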
(Fluorescence polarisation rises when a labelled molecule tumbles more slowly, as on binding a larger partner.)

The next experiment deals with T2, CDK2/cyclin A2 (Homo sapiens, UniProt P24941).
T2 construct: purchased Carna Biosciences, Inc. QS S Assist CDK2/Cyclin A2_FP Kit
The experiment is described as follows: Human CDK2/cyclin A2 inhibitory activity (QS S Assist CDK2/Cyclin A2_FP Kit, IMAP fluorescence polarization). Format: biochemical. The procedure, abridged: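 Kinase activity read as fluorescence polarization (485/535 nm) after phosphorylated fluorescent substrate binds IMAP reagent (30 min, RT, dark). Enzyme (2.5 ng/well) reacted 60 min at RT with ATP/substrate/metal in HEPES pH 7.4 buffer with Tween 20 and DTT; no-enzyme wells define 0% activity; IC50 by curve fit.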

The mark [1] stands for this setting: 50% inhibitory concentration against CDK4/cyclin D3, given as class symbol.
[2] abbreviates: 50% inhibitory concentration against CDK2/cyclin A2, given as class symbol.
[3] abbreviates: Human CDK4/cyclin D3 inhibitory activity, read-out: CDK4 Activity symbol.
[4] abbreviates: Human CDK2/cyclin A2 inhibitory activity, read-out: CDK2 Activity symbol.

T1 sequence (P11802 whole entry): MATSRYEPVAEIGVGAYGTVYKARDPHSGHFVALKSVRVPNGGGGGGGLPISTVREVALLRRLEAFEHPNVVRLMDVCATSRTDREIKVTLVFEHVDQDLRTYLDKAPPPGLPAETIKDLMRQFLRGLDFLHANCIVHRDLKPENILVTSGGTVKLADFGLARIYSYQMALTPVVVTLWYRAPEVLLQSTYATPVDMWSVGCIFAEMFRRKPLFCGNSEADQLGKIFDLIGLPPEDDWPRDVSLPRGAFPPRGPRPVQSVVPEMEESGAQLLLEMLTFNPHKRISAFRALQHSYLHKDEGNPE
T1 sequence (P30281 whole entry partner): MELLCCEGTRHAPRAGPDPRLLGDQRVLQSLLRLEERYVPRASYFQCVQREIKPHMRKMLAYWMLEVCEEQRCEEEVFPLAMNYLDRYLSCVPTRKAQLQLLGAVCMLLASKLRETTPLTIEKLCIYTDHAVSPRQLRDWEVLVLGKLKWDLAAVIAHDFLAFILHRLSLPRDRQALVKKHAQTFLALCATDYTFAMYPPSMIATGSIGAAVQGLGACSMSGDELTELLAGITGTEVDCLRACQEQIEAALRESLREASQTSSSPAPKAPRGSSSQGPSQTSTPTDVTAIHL

Take `CC(C)Nc1nc([C@@H](C)O)cc2cnc(Nc3ccc(CN4CCN(C(C)(C)CO)CC4)cn3)nc12` [Compound 700]: the IC50 against CDK4/cyclin D3 (setting [1]) is < 10 nM; against CDK2/cyclin A2 (setting [2]), ≥ 100 nM.
The matching figures for `C[C@@H](O)c1cc2cnc(Nc3ccc(N4CCNCC4=O)cn3)nc2c(NC2CCC(C)(C)OC2)n1` (some centres unmarked) [Compound 649]: < 10 nM and ≥ 100 nM.
`CCCNc1nc(C2CCCO2)cc2cnc(Nc3ccc(N4CCNCC4)cn3)nc12` (single isomer, unassigned) [Compound 1026]: the IC50 against CDK4/cyclin D3 (setting [1]) is 10 to 100 nM; at CDK2/cyclin A2 (setting [2]), ≥ 100 nM.
For `CC(C)Nc1nc(C(F)F)cc2cnc(Nc3ccc(N4CCN(CCO)CC4)cn3)nc12` [Compound 49], the IC50 at CDK4/cyclin D3 (setting [3]) is < 10 nM; on CDK2/cyclin A2 (setting [4]), 10 to 100 nM.
For the compound `CC(C)Nc1nc([C@@H](C)O)cc2cnc(Nc3ccc(N4CCN(C[C@@H](C)O)CC4)nn3)nc12` [Compound 677], the IC50 is < 10 nM against CDK4/cyclin D3 (setting [1]) and ≥ 100 nM at CDK2/cyclin A2 (setting [2]).
In the case of `CC1(c2cc3cnc(Nc4ccc(CN5CCNCC5)cn4)nc3c(NC3CCC3)n2)COC1` [Compound 1108], the results for the IC50 against CDK4/cyclin D3 (setting [1]) and against CDK2/cyclin A2 (setting [2]) were < 10 nM and ≥ 100 nM, respectively.
In the case of `CC(C)Nc1nc([C@@H](C)O)cc2cnc(Nc3ccc4c(n3)CCN(S(C)(=O)=O)C4)nc12` [Compound 934], the IC50 against CDK4/cyclin D3 (setting [1]) was < 10 nM; against CDK2/cyclin A2 (setting [2]), ≥ 100 nM.
Regarding `CC(C)Nc1nc([C@@H](C)O)cc2cnc(Nc3ccc4c(n3)CN(C(=O)CO)C4)nc12` [Compound 656], the IC50 on CDK4/cyclin D3 (setting [1]) is < 10 nM; against CDK2/cyclin A2 (setting [2]), ≥ 100 nM.
Take `CN[C@H]1CC[C@@H](Oc2ccc(Nc3ncc4cc([C@@H](C)O)nc(NC(C)C)c4n3)nc2)CC1` [Compound 738]: the IC50 is < 10 nM at CDK4/cyclin D3 (setting [1]) and ≥ 100 nM against CDK2/cyclin A2 (setting [2]).
`CNCCOc1ccc(Nc2ncc3c(Cl)c([C@@H](C)O)nc(N[C@H]4CCCOC4)c3n2)nc1` [Compound 755]: the IC50 is < 10 nM against CDK4/cyclin D3 (setting [1]) and ≥ 100 nM at CDK2/cyclin A2 (setting [2]).
For `CNC1CCN(c2ccc(Nc3ncc4cc([C@@H](C)O)nc(NC(C)C)c4n3)nn2)CC1` [Compound 497], the IC50 on CDK4/cyclin D3 (setting [3]) is < 10 nM; on CDK2/cyclin A2 (setting [4]), ≥ 100 nM.
In the case of `C[C@@H](O)c1cc2cnc(Nc3ccc(N4CCNCC4=O)cn3)nc2c(NC2CCOCC2)n1` [Compound 350], the results for the IC50 at CDK4/cyclin D3 (setting [3]) and at CDK2/cyclin A2 (setting [4]) were < 10 nM and ≥ 100 nM, respectively.
Consider `CCNc1nc([C@@H](C)OC)cc2cnc(Nc3ccc(CN4CCNCC4)cn3)nc12` [Compound 816], for which the IC50 against CDK4/cyclin D3 (setting [1]) is < 10 nM; on CDK2/cyclin A2 (setting [2]), ≥ 100 nM.
The matching figures for `CCCNc1nc([C@@H](C)O)cc2cnc(Nc3ccc4c(n3)CCN(CCN(C)C)C4)nc12` [Compound 1138]: < 10 nM and ≥ 100 nM.
With `CO[C@H](C)c1cc2cnc(Nc3ccc(CC(N)=O)cn3)nc2c(NC(C)C)n1` [Compound 231], the results for the IC50 on CDK4/cyclin D3 (setting [3]) and on CDK2/cyclin A2 (setting [4]) were 10 to 100 nM and ≥ 100 nM, respectively.
For `CCC(OC)c1cc2cnc(Nc3ccc(CN4CCNCC4)cn3)nc2c(NC(C)C)n1` (centres unmarked) [Compound 1066], the IC50 is 10 to 100 nM against CDK4/cyclin D3 (setting [1]) and ≥ 100 nM at CDK2/cyclin A2 (setting [2]).
For the compound `CN(C)CCN1CCc2nc(Nc3ncc4cc(C5(C)COC5)nc(N[C@H]5CCCOC5)c4n3)ccc2C1` [Compound 1179], the IC50 was < 10 nM at CDK4/cyclin D3 (setting [1]) and ≥ 100 nM at CDK2/cyclin A2 (setting [2]).
For `CC(C)Nc1nc([C@@H](C)O)cc2cnc(Nc3ccc(CN4CCN(C(=O)CO)CC4)cn3)nc12` [Compound 987], the IC50 against CDK4/cyclin D3 (setting [1]) is < 10 nM; against CDK2/cyclin A2 (setting [2]), ≥ 100 nM.
For `C[C@@H](O)c1cc2cnc(Nc3ccc(N4CCNCC4)nn3)nc2c(N[C@H]2CC[C@H](O)CC2)n1` [Compound 340], the IC50 at CDK4/cyclin D3 (setting [3]) was < 10 nM; at CDK2/cyclin A2 (setting [4]) it was ≥ 100 nM.
As to `CNC(=O)N1CCc2nc(Nc3ncc4cc([C@@H](C)O)nc(NC(C)C)c4n3)ccc2C1` [Compound 933], the IC50 was < 10 nM on CDK4/cyclin D3 (setting [1]) and ≥ 100 nM at CDK2/cyclin A2 (setting [2]).
In the case of `C[C@@H](O)c1cc2cnc(Nc3ccc(N4CCNCC4)nn3)nc2c(N[C@@H]2CCCOC2)n1` [Compound 254], the IC50 at CDK4/cyclin D3 (setting [3]) is < 10 nM; at CDK2/cyclin A2 (setting [4]) it was ≥ 100 nM.
As for `CC(C)Nc1nc([C@@H](C)O)cc2cnc(Nc3ccc(N4CCCC(N(C)C)C4)nn3)nc12` (some centres unmarked) [Compound 1220], the IC50 at CDK4/cyclin D3 (setting [1]) is < 10 nM; against CDK2/cyclin A2 (setting [2]), ≥ 100 nM.
With `CC(C)Nc1nc(C(C)O)cc2cnc(Nc3ccc(N4CCN(C)CC4)cn3)nc12` (centres unmarked) [Compound 71], the IC50 at CDK4/cyclin D3 (setting [3]) was < 10 nM; at CDK2/cyclin A2 (setting [4]) it was ≥ 100 nM.
Turning to `Cc1cc(Nc2ncc3cc([C@@H](C)O)nc(NC(C)C)c3n2)ncc1N1CCNCC1=O` [Compound 780], the IC50 is 10 to 100 nM against CDK4/cyclin D3 (setting [1]) and ≥ 100 nM on CDK2/cyclin A2 (setting [2]).
With `CC(C)Nc1nc(C2(C)COC2)cc2cnc(Nc3ccc(N4CCN(CC(=O)O)CC4C(F)(F)F)cn3)nc12` (centres unmarked) [Compound 890], the figures for the IC50 against CDK4/cyclin D3 (setting [1]) and against CDK2/cyclin A2 (setting [2]) were 10 to 100 nM and ≥ 100 nM, respectively.
